# Tested on: Polygonum convolvulus
# Assay: Post-emergence action against weeds, greenhouse pot test, visual scoring
# Format: in vivo
# Conditions: 11 days after application, 0%=no control, 100%=complete control
# Experimental: Seeds or rhizome pieces of monocotyledonous and dicotyledonous weeds were placed in sandy loam in plastic pots, covered with soil and cultivated in a greenhouse under good growth conditions. Three weeks after sowing, the test plants were treated at the 2-4 leaf stage. The compounds according to the invention, formulated as wettable powders or as emulsion concentrates, were sprayed onto the green parts of the plants at various dosages using a water application rate of from 100 to 800 I/ha (converted). After the test plants had been left to stand in the greenhouse for 10 to 28 days under optimum growth conditions, the effect of the preparations was scored visually in comparison to untreated controls.
# 0%=no control 100%=complete control
compound,measurement,setting,value
"sodium salt of 2-iodo-N-[(4-methoxy-6-methyl-1,3,5-triazin-2-yl)carbamoyl]benzenesulfonamide [Compound A-2]",Polygonum convolvulus Control in %,"Table 1, 2.5 g of ai/ha",10%
same,Polygonum convolvulus Control in %,"Table 2, 2.5 g of ai/ha",20%
"CP(=O)(O)CCC(N)C(=O)O (stereo not shown) [Compound B1-8, glufosinate-ammonium]",Polygonum convolvulus Control in %,"Table 1, 150 g of ai/ha",20%
glyphosate-ammonium [Compound B1-15],Polygonum convolvulus Control in %,"Table 2, 360 g of ai/ha",55%

# Reference: US20100298144A1, “HERBICIDAL COMBINATION” (BAYER CROPSCIENCE AG, priority 2008, published 2010)
